Converted amounts (≈) assume the structure as drawn. Like-named read-outs stand apart in the source and are kept apart here.

Type in all cases: cell-based
In one experiment the test system is P. aeruginosa ATCC 27853. The experiment is described as follows: MIC, Gram-negative bacteria: P. aeruginosa ATCC 27853. As to conditions: Pseudomonas aeruginosa, ATCC27853, read-out: Minimal Inhibitory Concentration (MIC) P. aeruginosa ATCC 27853.
The next experiment deals with H. influenzae ATCC 49247. Put plainly: MIC, Gram-negative bacteria: H. influenzae ATCC 49247. As to conditions: Haemophilus influenzae, ATCC49247, read-out: Minimal Inhibitory Concentration (MIC) H. influenzae ATCC 49247.
Experiment [1] deals with P. aeruginosa MDR clinical isolate. Put plainly: MIC, Gram-negative bacteria: P. aeruginosa MDR clinical isolate. As to conditions: Pseudomonas aeruginosa, read-out: Minimal Inhibitory Concentration (MIC) P. aeruginosa MDR clinical isolate.
Another experiment has as its system E. faecalis. The experiment is described as follows: MIC, Gram-positive bacteria: E. faecalis. As to conditions: Enterococcus faecalis, column 1, read-out: Minimal Inhibitory Concentration (MIC) E. faecalis.
A further experiment relates to E. faecium ATCC 35667. Put plainly: MIC, Gram-positive bacteria: E. faecium ATCC 35667. The settings on record: Enterococcus faecium, ATCC35667, column 2, read-out: Minimal Inhibitory Concentration (MIC) E. faecium ATCC 35667.
The test system of experiment [2] is S. aureus Linezolid-resistant; cfr. Put plainly: MIC, Gram-positive bacteria: S. aureus Linezolid-resistant; cfr. As to conditions: Staphylococcus aureus, column 9, read-out: Minimal Inhibitory Concentration (MIC) S. aureus Linezolid-resistant.
A further experiment has as its system S. pneumoniae. Put plainly: MIC, Gram-positive bacteria: S. pneumoniae. As to conditions: Streptococcus pneumoniae, column 10, read-out: Minimal Inhibitory Concentration (MIC) S. pneumoniae.
Experiment [3] deals with S. aureus Vat A streptogramin. Put plainly: MIC, Gram-positive bacteria: S. aureus Vat A streptogramin. As to conditions: Staphylococcus aureus; Gram-positive; column 5; read-out: Minimal Inhibitory Concentration (MIC) S. aureus Vat A streptogramin.
Experiment [4] concerns K. pneumoniae multidrug-resistant. The experiment is described as follows: MIC, Gram-negative bacteria: K. pneumoniae multidrug-resistant. As to conditions: Klebsiella pneumoniae, read-out: Minimal Inhibitory Concentration (MIC) K. pneumoniae multidrug-resistant.
In another experiment the test system is E. faecium VRE; vanA. Put plainly: MIC, Gram-positive bacteria: E. faecium VRE; vanA. As to conditions: Enterococcus faecium, column 3, read-out: Minimal Inhibitory Concentration (MIC) E. faecium VRE.
The test system of a further experiment is Gram-Negative Organisms. The experiment is described as follows: microbe, parasite or virus in culture.
The test system of another experiment is S. aureus. Put plainly: MIC, Gram-positive bacteria: S. aureus (strains not named). The settings on record: Staphylococcus aureus, read-out: Minimal Inhibitory Concentration (MIC) S. aureus.
Setting [5] is: Acinetobacter baumannii, ATCC19606, read-out: Minimal Inhibitory Concentration (MIC), A. baumannii ATCC 19606.
Setting [6] is: Escherichia coli, ATCC25922, read-out: Minimal Inhibitory Concentration (MIC), E. coli ATCC 25922.
Setting [7] is: Escherichia coli, read-out: Minimal Inhibitory Concentration (MIC), E. coli BAS2006, OMP C, OMP F.
The mark [8] stands for this setting: Escherichia coli, read-out: Minimal Inhibitory Concentration (MIC), E. coli olC efflux defective.
Setting [9] is: Escherichia coli, read-out: Minimal Inhibitory Concentration (MIC), E. coli permeability mutant BAS1314, IMP4213ZAB::TN10.
The mark [10] stands for this setting: Escherichia coli, read-out: Minimal Inhibitory Concentration (MIC), E. coli ΔompC768, KanR insert.
Setting [11] is: Klebsiella pneumoniae, ATCC43816, read-out: Minimal Inhibitory Concentration (MIC), K. pneumoniae ATCC 43816.
[12] abbreviates: first unnamed S. aureus column (c4).
Where [13] appears, read: fourth unnamed S. aureus column (c8).
The mark [14] stands for this setting: second unnamed S. aureus column (c6).
Where [15] appears, read: third unnamed S. aureus column (c7).

Turning to `CC1=C\[C@@H](O)CC(=O)Cc2nc(co2)C(=O)N2CCC[C@@H]2C(=O)O[C@H]([C@H](C)COC(=O)Nc2ccccc2)[C@H](C)/C=C/C(=O)NC\C=C\1` [SA0110196], the MIC with P. aeruginosa ATCC 27853 is above 64 µg/mL; with H. influenzae ATCC 49247, 16 µg/mL (≈ 24.1 µM); in experiment [1], above 64 µg/mL; in the experiment on E. faecalis it was above 64 µg/mL; with E. faecium ATCC 35667, 16 µg/mL (≈ 24.1 µM); in [2], above 64 µg/mL. Moreover, the MIC in the experiment on S. pneumoniae is 32 µg/mL (≈ 48.3 µM); in experiment [3], above 64 µg/mL; in experiment [4], above 64 µg/mL; with E. faecium VRE; vanA it was 64 µg/mL (≈ 96.6 µM); with Gram-Negative Organisms (setting [5]), above 64 µg/mL; in the experiment on Gram-Negative Organisms (setting [6]), above 64 µg/mL. Also, the MIC in the experiment on Gram-Negative Organisms (setting [7]) is 32 µg/mL (≈ 48.3 µM); in the experiment on Gram-Negative Organisms (setting [8]) it was 2 µg/mL (≈ 3.02 µM); in the experiment on Gram-Negative Organisms (setting [9]), 8 µg/mL (≈ 12.1 µM); in the experiment with Gram-Negative Organisms (setting [10]), above 64 µg/mL; with Gram-Negative Organisms (setting [11]), above 64 µg/mL; with S. aureus (setting [12]), 32 µg/mL (≈ 48.3 µM). Further, the MIC was 16 µg/mL (≈ 24.1 µM) in the experiment with S. aureus (setting [13]), 32 µg/mL (≈ 48.3 µM) with S. aureus (setting [14]) and 64 µg/mL (≈ 96.6 µM) in the experiment on S. aureus (setting [15]).
Take `CC1=C\[C@@H](O)CC(=O)Cc2nc(co2)C(=O)N2CCC[C@@H]2C(=O)O[C@H]([C@@H](C)COC(=O)Nc2cnccn2)[C@H](C)/C=C/C(=O)NC\C=C\1` [SA0110101]: the MIC in the experiment on P. aeruginosa ATCC 27853 is above 64 µg/mL; with H. influenzae ATCC 49247, 64 µg/mL (≈ 96.3 µM); in experiment [1], above 64 µg/mL; with E. faecalis, above 64 µg/mL; with E. faecium ATCC 35667, 64 µg/mL (≈ 96.3 µM); in experiment [2], above 64 µg/mL. Also, the MIC in the experiment on S. pneumoniae is 32 µg/mL (≈ 48.1 µM); in experiment [3], above 64 µg/mL; in experiment [4], above 64 µg/mL; in the experiment on E. faecium VRE; vanA, above 64 µg/mL; with Gram-Negative Organisms (setting [5]), above 64 µg/mL; with Gram-Negative Organisms (setting [6]), above 64 µg/mL. Further, the MIC with Gram-Negative Organisms (setting [7]) is 64 µg/mL (≈ 96.3 µM); in the experiment with Gram-Negative Organisms (setting [8]), 8 µg/mL (≈ 12 µM); in the experiment with Gram-Negative Organisms (setting [9]), 16 µg/mL (≈ 24.1 µM); in the experiment with Gram-Negative Organisms (setting [11]) it was above 64 µg/mL; with S. aureus (setting [12]) it was above 64 µg/mL; in the experiment with S. aureus (setting [13]), above 64 µg/mL. Also, the MIC in the experiment on S. aureus (setting [14]) and in the experiment with S. aureus (setting [15]) was above 64 µg/mL in each case.
`CC1=C\[C@@H](O)CC(=O)Cc2nc(co2)C(=O)N2CCC[C@@H]2C(=O)O[C@H]([C@H](C)COC(=O)Nc2ccc3ccccc3n2)[C@H](C)/C=C/C(=O)NC\C=C\1` [SA0110223]: the MIC with P. aeruginosa ATCC 27853 was above 64 µg/mL; in the experiment with H. influenzae ATCC 49247, 8 µg/mL (≈ 11.2 µM); in experiment [1] it was above 64 µg/mL; in the experiment with E. faecalis, above 64 µg/mL; in the experiment with E. faecium ATCC 35667, 4 µg/mL (≈ 5.6 µM); in experiment [2], above 64 µg/mL. Besides, the MIC with S. pneumoniae is 32 µg/mL (≈ 44.8 µM); in experiment [3], 32 µg/mL (≈ 44.8 µM); in experiment [4] it was above 64 µg/mL; in the experiment on E. faecium VRE; vanA, 16 µg/mL (≈ 22.4 µM); in the experiment on Gram-Negative Organisms (setting [5]) it was above 64 µg/mL; with Gram-Negative Organisms (setting [6]), above 64 µg/mL. The MIC is 16 µg/mL (≈ 22.4 µM) with Gram-Negative Organisms (setting [7]); 2 µg/mL (≈ 2.8 µM) with Gram-Negative Organisms (setting [8]); 2 µg/mL (≈ 2.8 µM) with Gram-Negative Organisms (setting [9]); above 64 µg/mL in the experiment with Gram-Negative Organisms (setting [10]); above 64 µg/mL in the experiment on Gram-Negative Organisms (setting [11]); 8 µg/mL (≈ 11.2 µM) with S. aureus (setting [12]). Also, the MIC amounted to 4 µg/mL (≈ 5.6 µM) with S. aureus (setting [13]), 8 µg/mL (≈ 11.2 µM) in the experiment on S. aureus (setting [14]) and 16 µg/mL (≈ 22.4 µM) with S. aureus (setting [15]).
As for `CC1=C\[C@@H](O)CC(=O)Cc2nc(co2)C(=O)N[C@H](C)C(=O)O[C@H](C(C)C)[C@H](C)/C=C/C(=O)NC\C=C\1` [madumycin I, Madumycin I, reference compound], the MIC with P. aeruginosa ATCC 27853 was above 64 µg/mL; in the experiment with H. influenzae ATCC 49247, 8 µg/mL (≈ 15.9 µM); in [1], above 64 µg/mL; with E. faecalis, 32 µg/mL (≈ 63.8 µM); in the experiment with E. faecium ATCC 35667 it was 2 µg/mL (≈ 3.99 µM); in experiment [2], 64 µg/mL (≈ 128 µM). Also, the MIC was 4 µg/mL (≈ 7.97 µM) in the experiment with S. pneumoniae; 64 µg/mL (≈ 128 µM) in experiment [3]; above 64 µg/mL in [4]; 4 µg/mL (≈ 7.97 µM) with E. faecium VRE; vanA; above 64 µg/mL in the experiment on Gram-Negative Organisms (setting [5]); above 64 µg/mL in the experiment on Gram-Negative Organisms (setting [6]). For the same compound, the MIC in the experiment with Gram-Negative Organisms (setting [7]) is 0.5 µg/mL (≈ 0.997 µM); in the experiment on Gram-Negative Organisms (setting [8]), 2 µg/mL (≈ 3.99 µM); with Gram-Negative Organisms (setting [9]), 0.25 µg/mL (≈ 0.498 µM); in the experiment on Gram-Negative Organisms (setting [11]), above 64 µg/mL; in the experiment on S. aureus (setting [12]) it was 8 µg/mL (≈ 15.9 µM); in the experiment with S. aureus (setting [13]) it was 4 µg/mL (≈ 7.97 µM). The MIC in the experiment with S. aureus (setting [14]) and in the experiment on S. aureus (setting [15]) was 8 µg/mL (≈ 15.9 µM) throughout.
